# What was measured:
# CYP2D6 = target: T1, CYP2D6 (Homo sapiens, UniProt P10635); assay: CYP inhibition assay in human liver microsome, CYP2D6; format: in vitro ADME; conditions: substrate dextromethorphan 5 μM, second value of 2C9/2D6/3A4; for inhibition at 10 min, 10 µM: human, human liver microsomes, probe dextromethorphan 5 μM
# T1 construct: tissue BD-Gentest 452117; host or cells: human liver microsomes
# Method: This is a high throughput screening assay used for assessment of reversible inhibition of CYP2C9, CYP2D6, and CYP3A4 activity of test compounds in human liver microsome (HLM) in early discovery stage.
# 10 mM DMSO stock solutions of test compounds were diluted in DMSO to generate 2 mM intermediate stock solution. 250 nL, of intermediate stock solution were transferred in duplicate into 3 separate 384 well microtitre plates (assay-ready plates). A mixture of HLM and each substrate was made up. 45 μL of HLM substrate mix was then transferred to each well of an assay ready plate and mixed. The negative (solvent) and positive controls (standard inhibitor for each CYP) were included in each assay ready plate. The assay ready plate was warmed to 37° C. in an incubator over 10 minutes. 5 μL pre-warmed NADPH regenerating system was added to each incubation well to start the reaction. Final incubation volume was 50 μL. The assay plate then was placed back in the 37° C. incubator. After incubation (10 minutes for CYP2D6) for 5 minutes, incubates were quenched by addition of 50 μL 100% acetonitrile containing internal standards (400 ng/mL 13C6-4′-OH-Diclofenac, 20 ng/mL D3-Dextrorphan and 20 ng/mL D4-1′OH-Midazolam). The supernatants were collected for RapidFire/MS/MS analysis.
# RapidFire online solid phase extraction/sample injection system (Agilent) coupled with API4000 triple quadrupole mass spectrometer (AB Sciex) were used for sample analysis. The mobile phase composed of acetonitrile and water supplemented with 0.1% formic acid. A C4 solid phase extraction cartridge is used for sample separation. MS detection is achieved in positive ion MRM mode.
# Peak areas for substrate, metabolite and internal standard are determined using the RapidFire integrator software (version 3.6.12009.12296). Peak area ratios (PAR) of metabolite and internal standard (stable-labelled metabolite) are then calculated. The measurement window for each experiment is then defined:
# PAR (0% activity)=average PAR for all incubations containing concentrated inhibitor; Par (100% activity)=average PAR for all incubations containing no inhibitor (DMSO controls); % Activity (test inhibitor)=[PAR (test inhibitor)−PAR (0% activity)]/[PAR (100% activity)−PAR (0% activity)]; % Inhibition (test inhibitor)=100-% Activity (test inhibitor).
# CYP2C9 = target: T2, CYP2C9 (Homo sapiens, UniProt P11712); assay: CYP inhibition assay in human liver microsome, CYP2C9; format: in vitro ADME; conditions: substrate diclofenac 5 μM, first value of 2C9/2D6/3A4; for inhibition at 5 min, 10 µM: human, human liver microsomes, probe diclofenac 5 μM
# T2 construct: tissue BD-Gentest 452117; host or cells: human liver microsomes
# T2 sequence (P11712 whole entry): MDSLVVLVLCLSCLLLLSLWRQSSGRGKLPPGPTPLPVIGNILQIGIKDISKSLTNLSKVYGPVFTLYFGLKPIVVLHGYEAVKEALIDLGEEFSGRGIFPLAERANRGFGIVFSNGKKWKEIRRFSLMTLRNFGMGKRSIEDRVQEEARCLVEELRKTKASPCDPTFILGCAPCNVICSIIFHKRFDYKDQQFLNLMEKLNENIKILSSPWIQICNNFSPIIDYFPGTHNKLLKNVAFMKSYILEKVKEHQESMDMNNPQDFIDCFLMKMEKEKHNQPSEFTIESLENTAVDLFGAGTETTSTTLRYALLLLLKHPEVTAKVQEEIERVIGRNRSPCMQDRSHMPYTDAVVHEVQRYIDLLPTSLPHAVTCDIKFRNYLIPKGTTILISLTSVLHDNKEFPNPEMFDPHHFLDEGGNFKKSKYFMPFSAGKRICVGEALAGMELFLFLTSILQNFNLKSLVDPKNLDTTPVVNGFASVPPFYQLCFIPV
# How it was run: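 Pooled human liver microsomes with a substrate for each CYP were incubated with compound at 37 °C after NADPH addition, for 5 min (CYP2D6: 10 min), then quenched with acetonitrile containing labelled metabolite standards. Metabolite/internal-standard peak area ratios were measured by RapidFire MS/MS. % inhibition was scaled between DMSO and standard-inhibitor controls.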
# hERG channel = target: T3, hERG channel (Homo sapiens, UniProt Q12809); assay: hERG channel inhibition assay (patch-clamp, CHOhERG cells); format: cell-based
# T3 construct: expressed in transfected cells; host or cells: CHO (Chinese hamster ovary)
# T3 sequence (Q12809 whole entry): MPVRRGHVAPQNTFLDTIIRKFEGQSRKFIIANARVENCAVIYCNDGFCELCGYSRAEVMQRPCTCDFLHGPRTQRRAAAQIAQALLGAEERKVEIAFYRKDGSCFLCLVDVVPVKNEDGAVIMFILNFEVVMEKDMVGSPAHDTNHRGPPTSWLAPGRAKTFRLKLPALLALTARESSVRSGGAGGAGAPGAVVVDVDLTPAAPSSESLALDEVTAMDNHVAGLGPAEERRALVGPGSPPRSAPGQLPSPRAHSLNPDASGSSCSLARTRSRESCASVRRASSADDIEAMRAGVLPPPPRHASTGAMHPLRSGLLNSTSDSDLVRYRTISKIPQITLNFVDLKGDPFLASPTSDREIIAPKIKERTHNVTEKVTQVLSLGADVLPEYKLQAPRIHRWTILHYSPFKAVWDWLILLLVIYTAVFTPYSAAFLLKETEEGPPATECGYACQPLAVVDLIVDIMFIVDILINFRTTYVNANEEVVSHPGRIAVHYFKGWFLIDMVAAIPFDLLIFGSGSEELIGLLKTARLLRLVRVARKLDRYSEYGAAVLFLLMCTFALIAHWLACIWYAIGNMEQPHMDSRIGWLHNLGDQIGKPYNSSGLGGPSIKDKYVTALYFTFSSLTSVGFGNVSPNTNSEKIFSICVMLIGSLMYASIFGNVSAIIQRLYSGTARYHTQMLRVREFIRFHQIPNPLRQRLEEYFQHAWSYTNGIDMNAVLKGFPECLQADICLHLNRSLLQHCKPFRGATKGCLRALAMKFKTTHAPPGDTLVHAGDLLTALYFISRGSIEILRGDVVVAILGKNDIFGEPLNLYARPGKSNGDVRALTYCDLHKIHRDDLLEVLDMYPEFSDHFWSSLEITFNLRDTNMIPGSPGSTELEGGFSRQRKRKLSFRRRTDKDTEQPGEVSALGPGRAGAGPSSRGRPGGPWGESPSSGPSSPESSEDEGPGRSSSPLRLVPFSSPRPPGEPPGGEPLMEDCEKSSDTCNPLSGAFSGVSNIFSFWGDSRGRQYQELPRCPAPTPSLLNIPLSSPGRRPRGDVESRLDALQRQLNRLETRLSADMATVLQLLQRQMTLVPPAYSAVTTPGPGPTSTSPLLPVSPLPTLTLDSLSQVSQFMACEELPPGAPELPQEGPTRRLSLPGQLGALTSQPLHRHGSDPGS
# How it was run: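 Whole-cell voltage-clamp recordings used CHO cells stably expressing human hERG, with IKhERG evoked by a voltage protocol at 0.1 Hz. Increasing compound concentrations were applied, each for 3–10 min to reach steady state, and current amplitude and kinetics were expressed relative to control (100%).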
# T1 sequence (P10635 whole entry): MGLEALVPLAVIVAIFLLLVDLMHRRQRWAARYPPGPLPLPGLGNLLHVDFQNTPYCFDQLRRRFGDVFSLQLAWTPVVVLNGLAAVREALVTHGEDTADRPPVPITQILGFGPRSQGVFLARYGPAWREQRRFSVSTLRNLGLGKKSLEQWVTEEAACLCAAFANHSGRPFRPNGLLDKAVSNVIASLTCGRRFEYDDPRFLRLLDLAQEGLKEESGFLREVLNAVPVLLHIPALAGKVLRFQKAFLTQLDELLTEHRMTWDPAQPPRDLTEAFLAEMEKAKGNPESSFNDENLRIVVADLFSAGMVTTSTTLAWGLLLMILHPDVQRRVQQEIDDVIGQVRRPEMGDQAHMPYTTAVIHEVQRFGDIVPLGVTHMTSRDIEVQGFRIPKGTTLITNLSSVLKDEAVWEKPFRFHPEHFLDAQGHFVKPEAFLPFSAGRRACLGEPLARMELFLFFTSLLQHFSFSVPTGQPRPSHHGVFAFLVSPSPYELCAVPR
"inhibition at 10 min, 10 µM (CYP2D6) [%]","inhibition at 5 min, 10 µM (CYP2C9) [%]",SMILES,also measured
-11,2.5,"COC1CN(c2ccc(N3CCN(C[C@H]4CN(c5ccc(C#N)c6ncccc56)C[C@@H](C)O4)CC3)cn2)CC1N (stereo partly drawn) [Example 43, 5-[(2S,6R)-2-[[4-[6-(3-amino-4-methoxy-pyrrolidin-1-yl)-3-pyridyl]piperazin-1-yl]methyl]-6-methyl-morpholin-4-yl]quinoline-8-carbonitrile]",–
5,-3.5,"C[C@@H]1CN(c2ccc(C#N)c3ncccc23)C[C@H](CN2CCN(c3nc(N4CCNCC4)ncc3F)CC2)O1 [Example 45, 5-[(2S,6R)-2-[[4-(5-fluoro-2-piperazin-1-yl-pyrimidin-4-yl)piperazin-1-yl]methyl]-6-methyl-morpholin-4-yl]quinoline-8-carbonitrile]",–
0,-1,"C[C@@H]1CN(c2ccc(C#N)n3ncc(F)c23)C[C@H](CN2CCN(c3ccc(N4CC5(CN(C)C5)C4)nc3)CC2)O1 [Example 170, 3-fluoro-4-[(2R,6S)-2-methyl-6-[[4-[6-(6-methyl-2,6-diazaspiro[3.3]heptan-2-yl)-3-pyridyl]piperazin-1-yl]methyl]morpholin-4-yl]pyrazolo[1,5-a]pyridine-7-carbonitrile]",–

# The remaining lines, values behind:
SMILES,"inhibition at 10 min, 10 µM (CYP2D6) [%]","inhibition at 5 min, 10 µM (CYP2C9) [%]",also measured
"COC1CN(c2nccc(N3CCN(C[C@H]4CN(c5ccc(C#N)c6ncccc56)C[C@@H](C)O4)CC3)n2)C[C@H]1N (stereo in doubt) [Example 52, 5-[(2S,6R)-2-[[4-[2-[(3R,4R)-3-amino-4-methoxy-pyrrolidin-1-yl]pyrimidin-4-yl]piperazin-1-yl]methyl]-6-methyl-morpholin-4-yl]quinoline-8-carbonitrile]",–,–,CYP (%) 2D6 inhibition (CYP2D6): 10.5%; CYP (%) 2C9 inhibition (CYP2C9): 3.5%
"COC1CNC[C@H]1Nc1cccc(N2CCN(C[C@H]3CN(c4ccc(C#N)c5ncccc45)C[C@@H](C)O3)CC2)n1 (stereo in doubt) [Example 39, 5-[(2S,6R)-2-[[4-[6-[[(3R,4R)-4-methoxypyrrolidin-3-yl]amino]-2-pyridyl]piperazin-1-yl]methyl]-6-methyl-morpholin-4-yl]quinoline-8-carbonitrile]",-4,23,–
"C[C@@H]1CN(c2ccc(C#N)c3ncccc23)C[C@H](CN2CCN(c3cc(N4CCN(C)CC4)ncn3)CC2)O1 [Example 21, 5-[(2R,6S)-2-methyl-6-[[4-[6-(4-methylpiperazin-1-yl)pyrimidin-4-yl]piperazin-1-yl]methyl]morpholin-4-yl]quinoline-8-carbonitrile]",2.5,-3,–
C[C@@H]1CN(c2ccc(C#N)c3ncccc23)C[C@H](CN2CCN(c3cccc(NC4CNC4)n3)CC2)O1 [Example 38],20.5,20,"IC20 (hERG channel; human, CHO cells stably expressing hERG (CHOhERG), patch-clamp, CHOhERG cells): 5.5 µM; IC50 (hERG channel; patch-clamp, CHOhERG cells): > 20 µM; hERG IC20/TLR7 IC50 (hERG channel; safety ratio): 344; hERG IC20/TLR8 IC50 (hERG channel; safety ratio): 500; hERG IC20/TLR9 IC50 (hERG channel; safety ratio): 57"
"C[C@@H]1CN(c2ccc(C#N)c3ncccc23)C[C@H](CN2CCN(c3ccnc(N4CCN(C)CC4)n3)CC2)O1 [Example 22, 5-((2R,6S)-2-methyl-6-((4-(2-(4-methylpiperazin-1-yl)pyrimidin-4-yl)piperazin-1-yl)methyl)morpholino)quinoline-8-carbonitrile]",2,20,–
"C[C@@H]1CN(c2ccc(C#N)c3ncccc23)C[C@H](CN2CCN(c3ccnc(N4CCNCC(O)C4)n3)CC2)O1 (stereo partly drawn) [Example 25, 5-[(2S,6R)-2-[[4-[2-(6-hydroxy-1,4-diazepan-1-yl)pyrimidin-4-yl]piperazin-1-yl]methyl]-6-methyl-morpholin-4-yl]quinoline-8-carbonitrile]",5.5,-5.5,–
"CO[C@H]1CN(c2nccc(N3CCN(C[C@H]4CN(c5ccc(C#N)c6ncccc56)C[C@@H](C)O4)CC3)n2)CC1N (stereo in doubt) [Example 53, 5-[(2S,6R)-2-[[4-[2-[(3S,4S)-3-amino-4-methoxy-pyrrolidin-1-yl]pyrimidin-4-yl]piperazin-1-yl]methyl]-6-methyl-morpholin-4-yl]quinoline-8-carbonitrile]",–,–,CYP (%) 2D6 inhibition (CYP2D6): 21.5%; CYP (%) 2C9 inhibition (CYP2C9): −4.5%
"C[C@@H]1CN(c2ccc(C#N)c3ncccc23)C[C@H](CN2CCN(c3ccnc(N4CCN[C@@H](CO)C4)n3)CC2)O1 [Example 29, 5-[(2S,6R)-2-[[4-[2-[(3R)-3-(hydroxymethyl)piperazin-1-yl]pyrimidin-4-yl]piperazin-1-yl]methyl]-6-methyl-morpholin-4-yl]quinoline-8-carbonitrile]",8.5,-2,–
"C[C@@H]1CN(c2ccc(C#N)c3ncccc23)C[C@H](CN2CCC(C#N)(c3ccc(N4CCNCC4)cc3)CC2)O1 [Example 11, 5-[(2S,6R)-2-[[4-cyano-4-(4-piperazin-1-ylphenyl)-1-piperidyl]methyl]-6-methyl-morpholin-4-yl]quinoline-8-carbonitrile]",0,0.5,–
"C[C@@H]1CN(c2ccc(C#N)c3ncccc23)C[C@H](CN2CCN(c3ccc([C@@H]4CNCCO4)cc3)CC2)O1 [Example 19, 5-[(2R,6S)-2-methyl-6-[[4-[4-[(2R)-morpholin-2-yl]phenyl]piperazin-1-yl]methyl]morpholin-4-yl]quinoline-8-carbonitrile]",0.5,11.5,–
"C[C@@H]1CN(c2ccc(C#N)c3ncccc23)C[C@H](CN2CCN(c3cc(N4CCNCC4)ccn3)CC2)O1 [Example 9, 5-[(2R,6S)-2-methyl-6-[[4-(4-piperazin-1-yl-2-pyridyl)piperazin-1-yl]methyl]morpholin-4-yl]quinoline-8-carbonitrile]",2,-7.5,–
"C[C@@H]1CN(c2ccc(C#N)c3ncccc23)C[C@H](CN2CCN(c3ccnc(N[C@H]4CNC[C@H]4F)n3)CC2)O1 [Example 24, 5-[(2S,6R)-2-[[4-[2-[[(3S,4R)-4-fluoropyrrolidin-3-yl]amino]pyrimidin-4-yl]piperazin-1-yl]methyl]-6-methyl-morpholin-4-yl]quinoline-8-carbonitrile]",6,3.5,–
"C[C@@H]1CN(c2ccc(C#N)c3ncccc23)C[C@H](CN2CCN(c3nccc(N4CCNCC4)n3)CC2)O1 [Example 14, 5-[(2R,6S)-2-methyl-6-[[4-(4-piperazin-1-ylpyrimidin-2-yl)piperazin-1-yl]methyl]morpholin-4-yl]quinoline-8-carbonitrile]",16.5,0,–
"C[C@@H]1CN(c2ccc(C#N)c3ncccc23)C[C@H](CN2CCN(c3ccc(N4CCNCC4)cn3)CC2)O1 [Example 8, 5-[(2R,6S)-2-methyl-6-[[4-(5-piperazin-1-yl-2-pyridyl)piperazin-1-yl]methyl]morpholin-4-yl]quinoline-8-carbonitrile]",6,1,–

# Reference: patent US20210395239A1 (Hoffmann-La Roche Inc., priority 2018, published 2021)
